Source: US4490527A, “Benzo-fused heterocyclic anti-ulcer agents” (American Home Products Corporation, priority 1983, dated 1984)
Entries after “also recorded” stand apart in the source; their conditions may differ. Counter-ions that a name gives are not always drawn. Like-named read-outs stand apart in the source and are kept apart here. Each block holds one molecule with its values, some of them ahead of it.

Columns and labels:
[1] = target: H2 histamine receptors (Cavia porcellus, UniProt P47747); experiment: cell-based; design: species or system guinea pig; settings: vs histamine dose-response, 32° C., pH 7.4
Protocol: The guinea pig heart atrium test is carried out as follows:
A guinea pig right atrium is suspended at 1 g. tension (isometric) in a thermostatically controlled (32° C.) tissue bath (10 ml) containing oxygenated (95% O2 ; 5% CO2) Krebs-Haenseleit buffer (pH 7.4). The tissue is allowed to stabilize over 1 hour. Individual contractions are recorded with a force-displacement transducer through a strain gauge coupler. A control dose-response curve to histamine in the above described tissue bath is obtained after which the tissue is washed 3 times and allowed to re-equilibrate to basal rate. The test compound is added to the tissue bath at the desired final concentration. Thirty minutes after addition of the compound, a fresh histamine dose response curve is again obtained. Then the response to histamine in the presence of antagonist is compared to the histamine control response. This procedure is repeated, using fresh tissues, for each concentration of antagonist tested. […] Cimetidine is used as the standard for this test.

[2] = test system: gastric acid secretion; experiment: gastric secretion in the rat, modified Shay procedure of pylorus ligation; assay type: in vivo; settings: intraduodenal, 4 h, i.d., four hours after ligation, read-out: % Inhibition (of acid output)
Protocol: The procedure for testing gastric secretion in the rat, a modification of the procedure of Shay et al., Gastroenterology, 26, 906-13 (1954) is carried out as follows: Male Charles River rats weighing 200-300 grams are deprived of food but not water for 24 hours prior to use. Water is, however, withheld during the experiment. The rats are weighed, anesthetized, and the pylorus ligated according to the method of Shay et al. Treatment or vehicle control is then administered interduodenally (i.d.). Rats are housed 2/cage and sacrificed with CO2 four hours after ligation. The stomachs are removed, rinsed, and contents emptied into a graduated centrifuge tube. The tubes are centrifuged for 20 minutes at 2,000 RPM and the volume of gastric juice recorded. Any samples obviously contaminated by feces, food or hemolysis are eliminated. An aliquot of each is frozen for later analysis of Na^+, K^+ and Cl^- concentration. The pH is measured and 1 ml. of gastric juice is titrated with 0.1N NaOH to a pH of 7.0-7.4. Titratable acid output is calculated in microequivalents and the percent inhibition of acid output is calculated as follows: [formula]

[3] = test system: gastric acid secretion; experiment: inhibition of secretion of acidic gastric juice in dogs (Pavlov gastric pouch, fed); assay type: in vivo, dog (beagle); settings: for ED50: Canis lupus familiaris, po, read-out: ID50 (dose at which there is obtained a 50% inhibition of the total gastric acid output)
Protocol: The procedure for testing the ability of the compounds of the invention to inhibit the secretion of acidic gastric juice in dogs is as follows: A female pure bred beagle (7-10 kg) having Pavlov gastric pouches is fasted overnight with water ad lib. The animal is orally dosed and thirty minutes later it is fed to induce gastric acid secretions. Gastric acid samples are then collected every 15 minutes. The volume of each sample is measured and aliquots are titrated to neutrality with 0.1N NaOH to determine acid concentration.

[4] = limitation noted in patients; cited from earlier work
[5] = 30 min after addition, results of three experiments, read-out: pA2 Value (apparent dissociation constant of the H2 antagonist) (converted)
[6] = orally dosed, fed thirty minutes later

H2 histamine receptors, sequence (P47747 whole entry): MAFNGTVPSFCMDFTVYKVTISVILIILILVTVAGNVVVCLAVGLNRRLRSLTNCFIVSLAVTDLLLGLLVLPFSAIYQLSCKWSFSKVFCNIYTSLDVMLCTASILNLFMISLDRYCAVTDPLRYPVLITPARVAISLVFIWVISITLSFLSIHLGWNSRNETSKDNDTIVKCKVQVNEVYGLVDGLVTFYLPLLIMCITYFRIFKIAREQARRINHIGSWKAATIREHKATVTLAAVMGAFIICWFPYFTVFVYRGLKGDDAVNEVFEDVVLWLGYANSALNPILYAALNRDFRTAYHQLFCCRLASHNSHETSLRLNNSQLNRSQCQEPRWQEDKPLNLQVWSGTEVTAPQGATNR

Kb [1, 5]: 25.1 nM
SMILES: O=S1(=O)N=C(NCCCOc2cccc(CN3CCCC3)c2)c2ccccc21 [Example 20, N-[3-[3-(1-pyrrolidinylmethyl)phenoxy]propyl]-1,2-benzisothiazol-3-amine 1 ,1-dioxide, hydrochloride, 1/3 hydrate]
inhibition in vivo at 2 mg/kg ([2]; Dose 2 mg/kg): 50%
ED50 [3, 6]: 1.4 mg/kg

Kb [1, 5]: 5.75 nM
SMILES: Cl.O=S1(=O)N=C(NCCCOc2cccc(CN3CCCCCC3)c2)c2ccccc21 [Example 24, N-[3-[3-[(hexahydro-1H-azepin-1-yl)methyl]phenoxy]-propyl]-1,2-benzisothiazol-3-amine 1,1-dioxide, hydrochloride]
inhibition in vivo at 8 mg/kg [2]: 50%
ED50 [3, 6]: 1.2 mg/kg

SMILES: CN/C(=N/CCSCc1nc[nH]c1C)NC#N [cimetidine]
duration of action [4]: short duration of action
side effects [4]: anti-androgenic activity; also recorded: tendency to cause confusional states in elderly patients
ED50 [3]: 6 mg/kg

Kb ([1]; marked *, result of only one experiment, read-out: KB value): 5.94 nM
SMILES: O=S1(=O)N=C(NCCCOc2cccc(CN3CCCCC3)c2)c2cscc21 [Example 41]
inhibition in vivo at 0.5 mg/kg ([2]; Dose 0.5 mg/kg): 37%
inhibition in vivo at 1 mg/kg [2]: 84%
inhibition in vivo at 4 mg/kg [2]: 87%
inhibition in vivo at 8 mg/kg [2]: 91%
ED50 [3, 6]: 0.25 mg/kg
reduced gastric acid secretions ([3]; dose of 1 mg/kg, orally dosed): 82%

Kb [1, 5]: 23.4 nM
SMILES: Cl.O=S1(=O)N=C(NCCCOc2ccc(CN3CCCCC3)cc2)c2ccccc21 [Example 38, N-[3-[4-[(1-piperidinyl)methyl]phenoxy]propyl]-1,2-benzisothiazol-3-amine 1,1-dioxide, hydrochloride]
inhibition in vivo at 1 mg/kg [2]: 34%
inhibition in vivo at 4 mg/kg [2]: 52%
inhibition in vivo at 16 mg/kg [2]: 93%
ED50 [3, 6]: 2 mg/kg

SMILES: CNC(=C[N+](=O)[O-])NCCSCc1ccc(CN(C)C)o1 [ranitidine, reference compound]
inhibition in vivo at 4 mg/kg [2]: 43%
ED50 [3, 6]: 2.3 mg/kg

Kb [1, 5]: 100 nM
SMILES: CN(C)Cc1ccc(CSCCNC2=NS(=O)(=O)c3ccccc32)o1 [Example 1, N-[2-[[[5-[(dimethylamino)methyl]2-furanyl]methyl]thio]ethyl]-1,2-benzisothiazol-3-amine 1,1-dioxide]
inhibition in vivo at 4 mg/kg [2]: 79%
ED50 [3, 6]: 0.8 mg/kg

Kb [1, 5]: 15.8 nM
SMILES: CCCN(CCC)Cc1cccc(OCCCNC2=NS(=O)(=O)c3ccccc32)c1.Cl [Example 18, N-[3-[3-[(dipropylamino)methyl]phenoxy]propyl]-1,2-benzisothiazol-3-amine 1,1-dioxide, hydrochloride]
inhibition in vivo at 8 mg/kg [2]: 67%
inhibition in vivo at 16 mg/kg [2]: 89%
inhibition in vivo at 32 mg/kg ([2]; Dose 32 mg/kg): 90%
ED50 [3, 6]: 1.2 mg/kg
